{"source": "BindingDB's records for doi:10.1016/j.bmc.2014.05.025", "about": "(University of California, 2014)", "biological_target": "T1, Polyunsaturated fatty acid lipoxygenase ALOX12 (Homo sapiens, UniProt P18054)", "T1 sequence (P18054 whole entry)": "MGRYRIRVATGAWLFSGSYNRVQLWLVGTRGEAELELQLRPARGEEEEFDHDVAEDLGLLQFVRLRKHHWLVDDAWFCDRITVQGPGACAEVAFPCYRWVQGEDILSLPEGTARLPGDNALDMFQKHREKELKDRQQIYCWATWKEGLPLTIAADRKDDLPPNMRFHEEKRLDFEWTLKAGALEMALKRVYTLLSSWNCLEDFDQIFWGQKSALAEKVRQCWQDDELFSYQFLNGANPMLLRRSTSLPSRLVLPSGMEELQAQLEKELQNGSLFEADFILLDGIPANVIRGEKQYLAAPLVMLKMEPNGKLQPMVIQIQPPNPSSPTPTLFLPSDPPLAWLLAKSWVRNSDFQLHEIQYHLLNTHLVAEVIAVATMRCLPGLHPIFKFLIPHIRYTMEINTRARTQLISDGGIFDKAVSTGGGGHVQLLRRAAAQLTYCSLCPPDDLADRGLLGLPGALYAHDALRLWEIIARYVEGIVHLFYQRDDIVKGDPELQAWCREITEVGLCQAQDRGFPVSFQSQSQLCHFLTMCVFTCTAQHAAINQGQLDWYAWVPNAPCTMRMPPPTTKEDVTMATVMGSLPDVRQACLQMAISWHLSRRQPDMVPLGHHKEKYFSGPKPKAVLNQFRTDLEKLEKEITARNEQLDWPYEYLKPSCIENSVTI", "assay": "Mixed type inhibition of human platelet 12-lipoxygenase assessed as equilibrium inhibitor constant of dissociation from enzyme by measuring 12-HpETE formation in presence of 0.01% Triton-X-100 by Dixon plot based steady-state inhibition kinetics assay"}
{"smiles": "CCCCCC(=O)C=CC=CC/C=C\\C/C=C\\CCCC(=O)O", "note": "[(5Z,8Z,11Z,13E)-15-oxoicosa-5,8,11,13-tetraenoic acid]", "values": [{"measurement": "Ki", "result": 87, "unit": "nM"}]}
